Source: patent US8927717B1, “Thiochromeno[2,3-c]quinolin-12-one derivatives, preparation method and application thereof” (National Defense Medical Center, priority 2014, dated 2015)

How the values were obtained:
OVCAR-4 = format: cell-based; conditions: OVCAR-4; for Growth percent: 10^−5 molar
UACC-257 = format: cell-based; conditions: UACC-257; for Growth percent: 10^−5 molar
ACHN = format: cell-based; conditions: ACHN; for Growth percent: 10^−5 molar
SF-539 = format: cell-based; conditions: SF-539; for Growth percent: 10^−5 molar
SK-MEL-5 = format: cell-based; conditions: SK-MEL-5; for Growth percent: 10^−5 molar
MDA-MB-231/ATCC = format: cell-based; conditions: MDA-MB-231/ATCC; for Growth percent: 10^−5 molar
HCC-2998 = format: cell-based; conditions: HCC-2998; for Growth percent: 10^−5 molar
CAKI-1 = format: cell-based; conditions: CAKI-1
SF-268 = format: cell-based; conditions: SF-268; for Growth percent: 10^−5 molar
SK-OV-3 = format: cell-based; conditions: SK-OV-3; for Growth percent: 10^−5 molar
NCI-H226 = format: cell-based; conditions: NCI-H226; for Growth percent: 10^−5 molar
HOP-92 = format: cell-based; conditions: HOP-92; for Growth percent: 10^−5 molar
KM12 = experiment: cells; format: cell-based; conditions: KM12; for Growth percent: 10^−5 molar
TOP I (Topoisomerase I) [1] = target: T1, TOP I (Topoisomerase I) (Homo sapiens, UniProt P11387); experiment: TOP I mediated supercoiled DNA relaxation assay; format: biochemical; conditions: primary assay at 25 and/or 50 μM
T1 construct: purchased TopoGEN TG2005H
T1 sequence (P11387 1-765): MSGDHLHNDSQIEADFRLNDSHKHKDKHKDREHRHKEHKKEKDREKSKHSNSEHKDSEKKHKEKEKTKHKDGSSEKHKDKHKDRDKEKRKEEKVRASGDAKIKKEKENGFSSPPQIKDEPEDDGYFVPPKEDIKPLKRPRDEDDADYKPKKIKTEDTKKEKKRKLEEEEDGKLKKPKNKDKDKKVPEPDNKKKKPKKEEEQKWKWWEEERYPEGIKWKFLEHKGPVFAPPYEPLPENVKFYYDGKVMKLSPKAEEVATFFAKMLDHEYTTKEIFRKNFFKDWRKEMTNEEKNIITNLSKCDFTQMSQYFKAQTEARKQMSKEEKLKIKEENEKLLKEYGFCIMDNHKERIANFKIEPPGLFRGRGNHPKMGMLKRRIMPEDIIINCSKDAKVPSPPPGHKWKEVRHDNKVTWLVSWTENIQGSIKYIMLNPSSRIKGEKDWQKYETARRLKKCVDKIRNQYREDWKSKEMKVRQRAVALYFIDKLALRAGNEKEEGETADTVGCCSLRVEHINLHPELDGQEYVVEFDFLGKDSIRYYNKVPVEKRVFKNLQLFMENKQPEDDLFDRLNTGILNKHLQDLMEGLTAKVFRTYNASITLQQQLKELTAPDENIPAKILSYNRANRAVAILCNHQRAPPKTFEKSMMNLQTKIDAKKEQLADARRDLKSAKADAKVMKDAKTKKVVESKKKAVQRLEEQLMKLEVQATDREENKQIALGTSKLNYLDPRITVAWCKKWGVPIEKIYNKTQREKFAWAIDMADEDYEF
Experimental: According to the cell cytotoxicity, compounds 5, 7, 8, 16, 19, N2, N7, N8, N9, N14-N19, and N25 were also selected for primary TOP I and II activities assays at 25 and/or 50 μM (FIG. 2-4).

IGROV1 = format: cell-based; conditions: IGROV1; for Growth percent: 10^−5 molar
NCI/ADR-RES = format: cell-based; conditions: NCI/ADR-RES; for Growth percent: 10^−5 molar
SK-MEL-2 = format: cell-based; conditions: SK-Mel-2; for Growth percent: 10^−5 molar
HOP-62 = format: cell-based; conditions: HOP-62; for Growth percent: 10^−5 molar
U251 = format: cell-based; conditions: U251; for Growth percent: 10^−5 molar
HCT-116 = format: cell-based; conditions: HCT-116; for Growth percent: 10^−5 molar
OVCAR-3 = format: cell-based; conditions: OVCAR-3, five dose
[2] = target: T2, TOP II (Topoisomerase II) (Homo sapiens, UniProt P11388); experiment: TOP II-catalyzed relaxation of plasmid DNA assay; format: biochemical
T2 construct: purchased TopoGEN TG-2000H-1
T2 sequence (P11388 whole entry): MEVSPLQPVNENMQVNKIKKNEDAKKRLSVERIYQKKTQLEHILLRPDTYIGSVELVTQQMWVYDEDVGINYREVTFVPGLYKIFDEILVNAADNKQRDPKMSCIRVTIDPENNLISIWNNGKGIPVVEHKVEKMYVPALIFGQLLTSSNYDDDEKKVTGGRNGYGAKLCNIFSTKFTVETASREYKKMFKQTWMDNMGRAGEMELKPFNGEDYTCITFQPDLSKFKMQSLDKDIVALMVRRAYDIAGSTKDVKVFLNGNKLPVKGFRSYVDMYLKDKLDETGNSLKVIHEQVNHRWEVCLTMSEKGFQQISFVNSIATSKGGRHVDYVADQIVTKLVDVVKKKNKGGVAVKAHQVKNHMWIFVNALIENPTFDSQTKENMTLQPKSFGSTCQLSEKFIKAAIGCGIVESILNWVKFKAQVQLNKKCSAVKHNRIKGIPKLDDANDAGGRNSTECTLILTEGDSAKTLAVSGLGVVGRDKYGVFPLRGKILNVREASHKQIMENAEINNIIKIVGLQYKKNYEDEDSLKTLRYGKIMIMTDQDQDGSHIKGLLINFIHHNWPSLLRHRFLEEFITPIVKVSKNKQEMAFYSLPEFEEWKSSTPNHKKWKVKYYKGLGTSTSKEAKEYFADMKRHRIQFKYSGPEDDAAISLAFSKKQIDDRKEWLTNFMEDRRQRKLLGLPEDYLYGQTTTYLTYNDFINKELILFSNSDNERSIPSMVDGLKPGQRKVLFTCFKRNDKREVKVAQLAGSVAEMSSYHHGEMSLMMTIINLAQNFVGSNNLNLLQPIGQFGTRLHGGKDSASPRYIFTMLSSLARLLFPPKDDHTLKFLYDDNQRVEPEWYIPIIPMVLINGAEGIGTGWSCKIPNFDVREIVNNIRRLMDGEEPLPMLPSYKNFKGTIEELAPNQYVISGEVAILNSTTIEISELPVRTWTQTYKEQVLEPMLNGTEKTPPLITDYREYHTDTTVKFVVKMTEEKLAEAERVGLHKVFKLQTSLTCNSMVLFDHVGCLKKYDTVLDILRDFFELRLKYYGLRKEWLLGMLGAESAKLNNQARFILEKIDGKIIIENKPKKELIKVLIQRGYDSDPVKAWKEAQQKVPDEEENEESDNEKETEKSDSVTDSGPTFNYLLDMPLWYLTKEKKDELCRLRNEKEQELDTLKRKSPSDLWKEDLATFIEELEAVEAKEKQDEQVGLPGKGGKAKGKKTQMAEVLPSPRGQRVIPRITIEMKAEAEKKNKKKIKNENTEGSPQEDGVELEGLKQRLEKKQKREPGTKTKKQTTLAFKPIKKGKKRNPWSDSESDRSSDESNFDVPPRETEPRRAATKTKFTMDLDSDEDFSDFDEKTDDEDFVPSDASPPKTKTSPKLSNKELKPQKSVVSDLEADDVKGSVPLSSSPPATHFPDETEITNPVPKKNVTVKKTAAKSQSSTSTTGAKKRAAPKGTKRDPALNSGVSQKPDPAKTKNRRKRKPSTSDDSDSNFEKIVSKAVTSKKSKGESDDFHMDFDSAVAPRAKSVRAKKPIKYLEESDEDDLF
Experimental: We also performed TOP II-catalyzed relaxation of plasmid DNA assays (FIG. 5-7) to evaluate if compounds could inhibit TOP II. […] The IC50 value of compounds 7, N7, N8, N14, N15, N18, and N19 were about 10, 10, 1, 10, 5, 1, and 1 μM, respectively (detect by TopoGEN TG2005H, TG-2000H-1).

TOP I (Topoisomerase I) [3] = target: T1, TOP I (Topoisomerase I); experiment: TOP I mediated supercoiled DNA relaxation assay; format: biochemical; conditions: five different concentrations; TopoGEN TG2005H, TG-2000H-1
[4] = Homo sapiens, five dose, read-out: LC50 (the source's name)

With `CN(C)CCCNc1nc2ccccc2c2c(=O)c3cc(Cl)ccc3sc12` [Compound N17, 10-Chloro-6-((3-(dimethylamino)propyl)amino)-12H-thiochromeno[2,3-c]quinolin-12-one] the Growth percent (OVCAR-4) was 94.63%, the melting point was 194 to 195 °C and the Growth percent (UACC-257) was 107.40%. It also gave a Growth percent (ACHN) of 86.20%, a Growth percent (SF-539) of 87.85% and a Growth percent (SK-MEL-5) of 91.73%. The Growth percent (MDA-MB-231/ATCC) was 73.39%, the Growth percent (HCC-2998) was 108.36% and the Growth percent (CAKI-1; 10^−5 molar) was 84.31%. For the same compound, the Growth percent (SF-268) was 87.67%, the Growth percent (SK-OV-3) was 99.91% and the Growth percent (NCI-H226) was 81.01%. The Growth percent (HOP-92) was 40.76%, the Growth percent (KM12) was 97.75% and the “inhibitory effect in TOP I activity assay compared with CPT” value (TOP I (Topoisomerase I) [1]) was “more potent inhibitory effects than CPT”. It also gave a Growth percent (IGROV1) of 87.27%, a Growth percent (NCI/ADR-RES) of 96.94% and a Growth percent (SK-MEL-2) of 106.47%. It also gave a Growth percent (HOP-62) of 86.73%, a Growth percent (U251) of 84.19% and a Growth percent (HCT-116) of 70.19%.
For `O=c1c2cc(Cl)ccc2sc2c(NCCCNCCO)nc3ccccc3c12` [Compound N19, 10-Chloro-6-((3-((2-hydroxyethyl)amino)propyl)amino)-12H-thiochromeno[2,3-c]quinolin-12-one], the GI50 (OVCAR-4; Homo sapiens, five dose) was 1600 nM, the Growth percent (OVCAR-4) was 12.32% and the TGI (OVCAR-4; five dose) was 3230 nM. The GI50 (UACC-257; Homo sapiens, five dose) was 1860 nM, the CC50 (UACC-257; [4]) was 6330 nM and the Growth percent (UACC-257) was 45.70%. The TGI (UACC-257; five dose) was 3440 nM, the Growth percent (ACHN) was −96.96% and the TGI (ACHN; five dose) was 3220 nM. It also gave a GI50 (ACHN; Homo sapiens, five dose) of 1670 nM, a GI50 (OVCAR-3; Homo sapiens) of 1790 nM and a TGI (OVCAR-3) of 3510 nM. The GI50 (SF-539; Homo sapiens, five dose) was 1700 nM, the Growth percent (SF-539) was −47.59% and the TGI (SF-539; five dose) was 3220 nM. For the same compound, the GI50 (SK-MEL-5; Homo sapiens, five dose) was 1600 nM, the Growth percent (SK-MEL-5) was 62.02% and the TGI (SK-MEL-5; five dose) was 3000 nM. For the same compound, the GI50 (MDA-MB-231/ATCC; Homo sapiens, five dose) was 1360 nM, the CC50 (MDA-MB-231/ATCC; [4]) was 6020 nM and the Growth percent (MDA-MB-231/ATCC) was −66.53%. It also gave a TGI (MDA-MB-231/ATCC; five dose) of 2860 nM, a Growth percent (HCC-2998) of −74.47% and a TGI (HCC-2998; five dose) of 3420 nM. For the same compound, the GI50 (HCC-2998; Homo sapiens, five dose) was 1580 nM, the TGI (CAKI-1; five dose) was 2690 nM and the GI50 (CAKI-1; Homo sapiens, five dose) was 1330 nM. The CC50 (CAKI-1; [4]) was 5450 nM, the GI50 (SF-268; Homo sapiens, five dose) was 1670 nM and the Growth percent (SF-268) was 17.28%. It also gave a TGI (SF-268; five dose) of 3350 nM, a GI50 (SK-OV-3; Homo sapiens, five dose) of 1680 nM and a CC50 (SK-OV-3; [4]) of 6800 nM. The Growth percent (SK-OV-3) was 76.48%, the TGI (SK-OV-3; five dose) was 3380 nM and the GI50 (NCI-H226; Homo sapiens, five dose) was 1900 nM. For the same compound, the Growth percent (NCI-H226) was 86.75%, the TGI (NCI-H226; five dose) was 4460 nM and the Growth percent (HOP-92) was 23.01%. It also gave a TGI (HOP-92; five dose) of 4580 nM, a GI50 (HOP-92; Homo sapiens, five dose) of 1230 nM and a GI50 (KM12; Homo sapiens, five dose) of 1670 nM. For the same compound, the Growth percent (KM12) was −83.29%, the TGI (KM12; five dose) was 3310 nM and the IC50 ([2]; five different concentrations, TopoGEN TG2005H, TG-2000H-1, read-out: IC50 value, TOP II mediated supercoiled DNA relaxation) was about 1000 nM. The “inhibitory effect in TOP II relaxation assay compared with VP-16” value ([2]; primary assay at 25 and/or 50 μM) was “more potent inhibitory effects than the positive agent VP-16”, the GI50 (IGROV1; Homo sapiens, IGROV-1, five dose) was 1660 nM and the Growth percent (IGROV1) was −43.25%. For the same compound, the TGI (IGROV1; five dose) was 3600 nM, the GI50 (NCI/ADR-RES; Homo sapiens, five dose) was 1820 nM and the Growth percent (NCI/ADR-RES) was 26.35%. The TGI (NCI/ADR-RES; five dose) was 3630 nM, the GI50 (SK-MEL-2; Homo sapiens, five dose) was 2050 nM and the Growth percent (SK-MEL-2) was 53.64%. For the same compound, the TGI (SK-MEL-2; five dose) was 3770 nM, the Growth percent (HOP-62) was 36.97% and the TGI (HOP-62; five dose) was 2890 nM. For the same compound, the GI50 (HOP-62; Homo sapiens, five dose) was 1380 nM, the GI50 (U251; Homo sapiens, U-251, five dose) was 1730 nM and the Growth percent (U251) was −66.76%. It also gave a TGI (U251; five dose) of 3220 nM, an IC50 (TOP I (Topoisomerase I) [3]) of about 5000 nM and a Growth percent (HCT-116) of −91.19%. It also gave a TGI (HCT-116; five dose) of 3050 nM and a GI50 (HCT-116; Homo sapiens, five dose) of 1600 nM.
